In PubChem BioAssay (NCI):
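How tested: cells in 96-well plates exposed to compound for 48 hours at five concentrations. TGI: total growth inhibition.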

Key:
Assay in all cases: growth of human tumour cells (NCI), 48 h
CCRF-CEM leukemia = tested on: CCRF-CEM leukemia
EKVX NSCLC = tested on: EKVX NSCLC
HL-60(TB) leukemia = tested on: HL-60(TB) leukemia
HS 578T breast = tested on: HS 578T breast
HT29 colon = tested on: HT29 colon
KM12 colon = tested on: KM12 colon
M14 melanoma = tested on: M14 melanoma
NCI-H522 lung = tested on: NCI-H522 lung
OVCAR-4 ovarian = tested on: OVCAR-4 ovarian
PC-3 prostate = tested on: PC-3 prostate
SF-295 CNS = tested on: SF-295 CNS
SF-539 CNS = tested on: SF-539 CNS
SK-MEL-5 melanoma = tested on: SK-MEL-5 melanoma
SN12C renal = tested on: SN12C renal
SNB-19 CNS = tested on: SNB-19 CNS
SNB-75 CNS = tested on: SNB-75 CNS
SW-620 colon = tested on: SW-620 colon
U251 CNS = tested on: U251 CNS
A498 renal = tested on: A498 renal

Measured: TGI

CC1C(=NO)C(C)C(c2ccccc2)N(N=O)C1c1ccccc1 (centres undefined)
81.8 µM: EKVX NSCLC
82 µM: SNB-75 CNS
29.8 µM: KM12 colon
50.5 µM: SNB-19 CNS
26.5 µM: SF-539 CNS
54.4 µM: OVCAR-4 ovarian
84.5 µM: CCRF-CEM leukemia
33.8 µM: HT29 colon
88.6 µM: HL-60(TB) leukemia
42 µM: SW-620 colon
34.5 µM: NCI-H522 lung
33.1 µM: SK-MEL-5 melanoma
> 100 µM: PC-3 prostate
28.8 µM: SN12C renal
36.7 µM: HS 578T breast
35.4 µM: U251 CNS
29.5 µM: M14 melanoma | SF-295 CNS

CC1(C)C=Cc2c(cc3oc4ccc5c(c4c(=O)c3c2O)C=CC(C)(C)O5)O1
> 100 µM: A498 renal | CCRF-CEM leukemia | EKVX NSCLC | HS 578T breast | HT29 colon | KM12 colon | M14 melanoma | NCI-H522 lung | OVCAR-4 ovarian | PC-3 prostate | SF-295 CNS | SF-539 CNS | SK-MEL-5 melanoma | SN12C renal | SNB-19 CNS | SW-620 colon | U251 CNS

Cc1ccc(/C=N/Nc2nc3ccccc3s2)s1
34.3 µM: SN12C renal
> 100 µM: CCRF-CEM leukemia | EKVX NSCLC | HL-60(TB) leukemia | HS 578T breast | HT29 colon | KM12 colon | M14 melanoma | NCI-H522 lung | OVCAR-4 ovarian | PC-3 prostate | SF-295 CNS | SF-539 CNS | SK-MEL-5 melanoma | SNB-19 CNS | SNB-75 CNS | SW-620 colon | U251 CNS

CCOC(=O)CC(=O)C(=O)NNC1=NCCN1
> 100 µM: CCRF-CEM leukemia | EKVX NSCLC | HL-60(TB) leukemia | HS 578T breast | HT29 colon | KM12 colon | M14 melanoma | NCI-H522 lung | OVCAR-4 ovarian | PC-3 prostate | SF-295 CNS | SF-539 CNS | SK-MEL-5 melanoma | SN12C renal | SNB-19 CNS | SNB-75 CNS | SW-620 colon | U251 CNS

COc1cccc(C(=O)Nc2c3ccccc3nc3ccccc23)c1OC
71 µM: SNB-75 CNS
> 100 µM: CCRF-CEM leukemia | EKVX NSCLC | HL-60(TB) leukemia | HS 578T breast | HT29 colon | KM12 colon | M14 melanoma | OVCAR-4 ovarian | PC-3 prostate | SF-295 CNS | SF-539 CNS | SK-MEL-5 melanoma | SN12C renal | SNB-19 CNS | SW-620 colon | U251 CNS
89.9 µM: NCI-H522 lung

COc1ccc(/C=N/n2c(=O)[nH]c3ccccc3c2=O)cc1
> 100 µM: A498 renal | CCRF-CEM leukemia | EKVX NSCLC | HS 578T breast | HT29 colon | KM12 colon | M14 melanoma | PC-3 prostate | SF-295 CNS | SF-539 CNS | SK-MEL-5 melanoma | SN12C renal | SNB-19 CNS | SNB-75 CNS | SW-620 colon | U251 CNS

C=C(C)CNC(=S)N(N)c1ccc(OC)cc1
> 100 µM: CCRF-CEM leukemia | EKVX NSCLC | HL-60(TB) leukemia | HS 578T breast | HT29 colon | KM12 colon | M14 melanoma | NCI-H522 lung | OVCAR-4 ovarian | PC-3 prostate | SF-295 CNS | SF-539 CNS | SK-MEL-5 melanoma | SN12C renal | SNB-19 CNS | SNB-75 CNS | SW-620 colon | U251 CNS

CC1(C)Oc2ccc3c(=O)c(-c4ccccc4)c(-c4ccccc4)oc3c2C1C(=O)O (centres undefined)
> 100 µM: A498 renal | CCRF-CEM leukemia | EKVX NSCLC | HS 578T breast | HT29 colon | M14 melanoma | NCI-H522 lung | OVCAR-4 ovarian | PC-3 prostate | SF-295 CNS | SF-539 CNS | SK-MEL-5 melanoma | SN12C renal | U251 CNS

Cc1c(-c2ccccc2)[nH]c2ccc(Cl)cc2c1=O
42.9 µM: SF-539 CNS
> 100 µM: CCRF-CEM leukemia | EKVX NSCLC | HL-60(TB) leukemia | HS 578T breast | HT29 colon | M14 melanoma | NCI-H522 lung | PC-3 prostate | SF-295 CNS | SN12C renal | SNB-19 CNS | SW-620 colon
59.7 µM: OVCAR-4 ovarian
57.5 µM: U251 CNS
28.1 µM: KM12 colon
56.3 µM: SK-MEL-5 melanoma
95.2 µM: SNB-75 CNS

Cc1nn2c(=O)c([N+](=O)[O-])c(/C=C/c3ccco3)nc2s1
89.1 µM: HS 578T breast
90.1 µM: SK-MEL-5 melanoma
63.7 µM: EKVX NSCLC
96.2 µM: HL-60(TB) leukemia
> 100 µM: CCRF-CEM leukemia | HT29 colon | KM12 colon | M14 melanoma | NCI-H522 lung | OVCAR-4 ovarian | PC-3 prostate | SF-295 CNS | SF-539 CNS | SN12C renal | SNB-19 CNS | SNB-75 CNS | SW-620 colon | U251 CNS

COc1ccc2oc(=Nc3ccccc3)c(C(N)=O)cc2c1
> 70.1 µM: HS 578T breast
> 45.1 µM: SNB-19 CNS
> 100 µM: CCRF-CEM leukemia | EKVX NSCLC | HL-60(TB) leukemia | HT29 colon | KM12 colon | M14 melanoma | NCI-H522 lung | OVCAR-4 ovarian | PC-3 prostate | SF-295 CNS | SF-539 CNS | SK-MEL-5 melanoma | SN12C renal | SNB-75 CNS | SW-620 colon | U251 CNS

CC1=CC=C2c3ccccc3C=CN2C(=O)C1
> 100 µM: CCRF-CEM leukemia | EKVX NSCLC | HS 578T breast | HT29 colon | KM12 colon | M14 melanoma | NCI-H522 lung | OVCAR-4 ovarian | PC-3 prostate | SF-295 CNS | SF-539 CNS | SN12C renal | SNB-19 CNS | SNB-75 CNS | SW-620 colon | U251 CNS
46.1 µM: SK-MEL-5 melanoma
41.2 µM: HL-60(TB) leukemia
